Consider four molecules from US7605270B2, “Polymorphic forms of (S).-tetrahydrofuran-3-yl-3-(3-(3-methoxy-4-(oxazol-5-yl) phenyl) ureido) benzylcarbamate” (Vertex Pharmaceuticals Incorporated, priority 2005, dated 2009).

Counter-ions that a name gives are not always drawn.

One data set concerns the target IMPDH human type II (Homo sapiens, UniProt P12268). As to conditions: general statement; disclosed in the Compound 1 patents; cited from earlier work.
A short description of data set [1]: Maturation study of Form A1: slurry in solvent, excess solid analysed by XRPD. Type of data set: physicochemical. As to conditions: about 10 mg slurried in 500 μl solvent, shaken at 25-30° C. for 24 hrs. The method, then: X-ray powder diffraction patterns for the samples were acquired on a Bruker AXS/Siemens D5000 diffractometer using CuKα radiation (40 kV, 40 mA), ?-? goniometer, automatic divergence and receiving slits, a graphite secondary monochromator and a scintillation counter. The data were collected over an angular range of 2° to 42° 2? in continuous scan mode using a step size of 0.02° 2? and a step time of 1 second. Samples run under ambient conditions were prepared as flat plate specimens using powder as received without grinding. Approximately 25-50 mg of the sample was gently packed into 12 mm diameter, 0.5 mm deep cavities cut into polished, zero-background (510) silicon wafers (The Gem Dugout, 1652 Princeton Drive, Pennsylvania State College, PA 16803, USA). All specimens were run both stationary and rotated in their own plane during analysis. A further specimen was run using silicon powder as an internal standard to correct for any peak displacement. Samples run under non-ambient conditions were packed into a stainless steel cavity sample holder equipped with a Pt 100 thermocouple for temperature monitoring. Low temperature data were recorded using an Anton Paar TTK450 variable temperature camera attached to the Bruker AXS/Siemens D5000 diffractometer. […] The excess solid was removed by filtration and analysed by XRPD.

A short description of data set [2]: Hygroscopicity: water/weight uptake at 90% relative humidity. Type of data set: physicochemical. As to conditions: for water uptake (weight uptake): at 90% relative humidity (RH) at 25° C.; for hygroscopicity (in words): judged from uptake at 90% relative humidity.

For `COc1cc(NC(=O)Nc2cccc(CNC(=O)O[C@H]3CCOC3)c2)ccc1-c1cnco1` [Compound 1, (S)-tetrahydrofuran-3-yl 3-(3-(3-methoxy-4-(oxazol-5-yl)phenyl)ureido)benzylcarbamate], at IMPDH human type II, the “IMPDH inhibition (in words)” value was “potent IMPDH inhibitor”.
With `COc1cc(NC(=O)Nc2cccc(CNC(=O)O[C@H]3CCOC3)c2)ccc1-c1cnco1` [Form A1, (S)-tetrahydrofuran-3-yl 3-(3-(3-methoxy-4-(oxazol-5-yl)phenyl)ureido)benzylcarbamate], in data set [1], the “XRPD patterns observed after maturation, all 31 solvents” value was “consistent with the pattern of Form A1”. In addition, in data set [2], the “water uptake (weight uptake)” value was “less than 0.5%” and the “hygroscopicity (in words)” value is recorded as “non-hygroscopic”.
For `COc1cc(NC(=O)Nc2cccc(CNC(=O)O[C@H]3CCOC3)c2)ccc1-c1cnco1` [Form C3, (S)-tetrahydrofuran-3-yl 3-(3-(3-methoxy-4-(oxazol-5-yl)phenyl)ureido)benzylcarbamate], in data set [2], the “water uptake (weight uptake)” value amounted to 3% and the “hygroscopicity (in words)” value is recorded as “moderately hygroscopic”.
In data set [2] (at 90% relative humidity), `COc1cc(NC(=O)Nc2cccc(CNC(=O)O[C@H]3CCOC3)c2)ccc1-c1cnco1` [Form E5 HCl salt, (S)-tetrahydrofuran-3-yl 3-(3-(3-methoxy-4-(oxazol-5-yl)phenyl)ureido)benzylcarbamate, HCl salt] came in with an uptake of 22 % w/w. Also, the “hygroscopicity (in words)” value in data set [2] (HCl salt) is “highly hygroscopic”.
